These results are taken from patent US9328112B2, “Tetracyclic CDK9 kinase inhibitors” (AbbVie Inc., priority 2014, dated 2016).

SMILES strings stand for the structures.

The target of one assay is CDK9/Cyclin T1 (Homo sapiens (Human), UniProt P50750). Nature of the assay: CDK9 enzyme assay (LANCE ULight TR-FRET kinase assay). It counts as biochemical. The conditions noted are these: 1000 μM ATP, 100 nM ULight MBP, kinase reaction 1 hour. A digest of the protocol:
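Human CDK9/Cyclin T1 phosphorylating 100 nM ULight-MBP with 1000 μM ATP in HEPES/MgCl2 buffer, 1 h reaction. Stopped with 20 mM EDTA plus 0.5 nM Eu anti-phospho-MBP antibody, incubated 1 h, read by TR-FRET (ex 320 nm, em 615/665 nm).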
(TR-FRET usually uses a lanthanide donor and a delayed reading to cut background.)

A further assay has as its system H929 cells. Description: Cell viability assay (Cell TiterGlo). It counts as cell-based. The settings on record: Homo sapiens, NCI-H929, 24 hours at 37° C., Cell TiterGlo luminescence. On the procedure: The cell viability assay was performed using H929 cells. Cells were seeded in 96-well plates at 10,000 cells/well and, after overnight incubation, treated with compounds in a dose response of 3-fold dilutions from 10 μM to 0.005 μM ([…], 0.1% final DMSO concentration). After 24 hours at 37° C., cell viability was measured using Cell TiterGlo reagent (Promega) with a luminescence reader.
(In general: In ATP-based viability assays light output follows the ATP content of the culture.)

Chain of CDK9/Cyclin T1 (P50750 whole entry): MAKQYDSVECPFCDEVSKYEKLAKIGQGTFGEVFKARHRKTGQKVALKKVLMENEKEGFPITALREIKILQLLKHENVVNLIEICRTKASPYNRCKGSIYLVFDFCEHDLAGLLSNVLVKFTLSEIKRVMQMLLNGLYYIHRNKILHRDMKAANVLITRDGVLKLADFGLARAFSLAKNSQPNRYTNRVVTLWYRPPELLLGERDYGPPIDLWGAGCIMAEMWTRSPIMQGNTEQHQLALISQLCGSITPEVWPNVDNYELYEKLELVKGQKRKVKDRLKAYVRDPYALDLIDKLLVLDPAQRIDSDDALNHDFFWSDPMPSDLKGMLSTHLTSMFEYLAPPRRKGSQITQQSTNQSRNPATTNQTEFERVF
Chain of CDK9/Cyclin T1 (O60563 whole entry partner): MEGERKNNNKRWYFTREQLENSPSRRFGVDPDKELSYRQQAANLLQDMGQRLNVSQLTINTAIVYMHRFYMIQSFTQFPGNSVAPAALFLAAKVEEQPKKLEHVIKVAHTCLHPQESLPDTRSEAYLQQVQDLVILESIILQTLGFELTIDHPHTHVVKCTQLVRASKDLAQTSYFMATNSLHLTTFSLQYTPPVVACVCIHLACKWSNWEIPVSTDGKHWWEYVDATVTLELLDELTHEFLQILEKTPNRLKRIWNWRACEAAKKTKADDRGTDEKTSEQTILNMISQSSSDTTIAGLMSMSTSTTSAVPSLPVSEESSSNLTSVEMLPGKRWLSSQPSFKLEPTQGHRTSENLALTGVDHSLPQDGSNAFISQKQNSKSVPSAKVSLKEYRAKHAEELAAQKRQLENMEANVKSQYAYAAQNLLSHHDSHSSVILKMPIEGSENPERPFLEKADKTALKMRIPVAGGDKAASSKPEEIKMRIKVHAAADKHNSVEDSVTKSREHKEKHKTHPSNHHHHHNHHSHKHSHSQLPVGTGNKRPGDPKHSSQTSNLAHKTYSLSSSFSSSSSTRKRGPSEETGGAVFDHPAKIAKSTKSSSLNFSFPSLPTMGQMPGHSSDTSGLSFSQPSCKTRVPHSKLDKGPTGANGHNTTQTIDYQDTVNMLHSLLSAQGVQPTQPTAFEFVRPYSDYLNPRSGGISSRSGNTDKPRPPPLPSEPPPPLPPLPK

By IC50 is commonly meant the point on the concentration scale where inhibition reaches its midpoint. A lower IC50 goes with greater potency in that assay. In the case of `CN(C)C(=O)CN1CC=C(c2[nH]c3ncc(F)c4c3c2CN(C)c2ccc(F)cc2-4)CC1` [Example 66, 2-[4-(1,10-difluoro-7-methyl-6,7-dihydro-4H-3,4,7-triazadibenzo[cd,f]azulen-5-yl)-3,6-dihydropyridin-1(2H)-yl]-N,N-dimethylacetamide], the 50% inhibitory concentration (IC50) on CDK9/Cyclin T1 came to 44 nM; in the assay on H929 cells, 10 nM.
The matching figures for `CN1Cc2c(C3=CCN(CC(=O)O)CC3)[nH]c3ncc(F)c(c23)-c2cc(F)ccc21` [Example 67, [4-(1,10-difluoro-7-methyl-6,7-dihydro-4H-3,4,7-triazadibenzo[cd,f]azulen-5-yl)-3,6-dihydropyridin-1(2H)-yl]acetic acid]: 48 nM and 130 nM.
Turning to `COCCS(=O)(=O)N1CC2C=C(c3[nH]c4nccc5c4c3CN(C)c3ccc(F)cc3-5)CC2C1` (stereo not drawn) [Example 69, 10-fluoro-5-{2-[(2-methoxyethyl)sulfonyl]-1,2,3,3a,4,6a-hexahydrocyclopenta[c]pyrrol-5-yl}-7-methyl-6,7-dihydro-4H-3,4,7-triazadibenzo[cd,f]azulene], the IC50 at CDK9/Cyclin T1 was 80 nM; in the assay with H929 cells, 95 nM.
For `CN1Cc2c(C3=CCN(CC(=O)N4CCC[C@H]4CO)CC3)[nH]c3ncc(F)c(c23)-c2cc(F)ccc21` [Example 70, 2-[4-(1,10-difluoro-7-methyl-6,7-dihydro-4H-3,4,7-triazadibenzo[cd,f]azulen-5-yl)-3,6-dihydropyridin-1(2H)-yl]-1-[(2S)-2-(hydroxymethyl)pyrrolidin-1-yl]ethanone] the same measures were 86 nM and 5 nM.
In the case of `CN1Cc2c(C3=CCN(CC(=O)N4CC(O)C4)CC3)[nH]c3ncc(F)c(c23)-c2cc(F)ccc21` [Example 72, 2-[4-(1,10-difluoro-7-methyl-6,7-dihydro-4H-3,4,7-triazadibenzo[cd,f]azulen-5-yl)-3,6-dihydropyridin-1(2H)-yl]-1-(3-hydroxyazetidin-1-yl)ethanone], the IC50 against CDK9/Cyclin T1 came to 79 nM; with H929 cells it was 21 nM.
In the case of `CN1Cc2c(C3=CCN(CC(=O)N4CC[C@H](O)C4)CC3)[nH]c3ncc(F)c(c23)-c2cc(F)ccc21` [Example 73, 2-[4-(1,10-difluoro-7-methyl-6,7-dihydro-4H-3,4,7-triazadibenzo[cd,f]azulen-5-yl)-3,6-dihydropyridin-1(2H)-yl]-1-[(3S)-3-hydroxypyrrolidin-1-yl]ethanone], the concentration for half-maximal inhibition (IC50) on CDK9/Cyclin T1 stood at 52 nM; in the assay on H929 cells, 20 nM.
The matching figures for `CN1Cc2c(C3=CCN(CC(=O)N4CC(CO)C4)CC3)[nH]c3ncc(F)c(c23)-c2cc(F)ccc21` [Example 74, 2-[4-(1,10-difluoro-7-methyl-6,7-dihydro-4H-3,4,7-triazadibenzo[cd,f]azulen-5-yl)-3,6-dihydropyridin-1(2H)-yl]-1-[3-(hydroxymethyl)azetidin-1-yl]ethanone]: 89 nM and 21 nM.
Take `CN1Cc2c(C3=CCN(CC(=O)N4CCC[C@@H]4CO)CC3)[nH]c3ncc(F)c(c23)-c2cc(F)ccc21` [Example 75, 2-[4-(1,10-difluoro-7-methyl-6,7-dihydro-4H-3,4,7-triazadibenzo[cd,f]azulen-5-yl)-3,6-dihydropyridin-1(2H)-yl]-1-[(2R)-2-(hydroxymethyl)pyrrolidin-1-yl]ethanone]: the values for the concentration for half-maximal inhibition (IC50) at CDK9/Cyclin T1 and in the assay on H929 cells were 51 nM and 8 nM, respectively.
With `CNC(=O)N1CC2C=C(c3[nH]c4nccc5c4c3CN(C)c3ccc(F)cc3-5)CC2C1` (stereo not drawn) [Example 76, 5-(10-fluoro-7-methyl-6,7-dihydro-4H-3,4,7-triazadibenzo[cd,f]azulen-5-yl)-N-methyl-3,3a,4,6a-tetrahydrocyclopenta[c]pyrrole-2(1H)-carboxamide], the 50% inhibitory concentration (IC50) at CDK9/Cyclin T1 stood at 41 nM; in the assay with H929 cells, 22 nM.
